Measured values: patent US20060069132A1, “Azolecarboxamide herbicides” (priority 2004, published 2006)

What was measured:
barnyardgrass = experiment: Test B pre-/postemergence herbicide test; type: in vivo, Echinochloa crus-galli; conditions: for Barnyardgrass plant response rating (0 to 100 scale) / Plant response rating, Barnyardgrass: 0 = no effect, 100 = complete control, preemergence; for Barnyardgrass plant response rating: postemergence
Summary of the method: (§1)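 Herbicidal effect was judged by eye on a 0–100 scale after plants stood 13 to 15 days in the greenhouse following pre- or postemergence treatment with surfactant-containing formulations.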

pigweed = experiment: Test B pre-/postemergence herbicide test; type: in vivo, Amaranthus retroflexus; conditions: for Pigweed plant response rating (0 to 100 scale) / Plant response rating, Pigweed: 0 = no effect, 100 = complete control, preemergence; for Pigweed plant response rating: postemergence
Summary of the method: (§2)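 Evaluation is visual, comparing treated with control plants on a scale where 0 means no effect and 100 means full control. Treatments were preemergence, or postemergence on seedlings 2–18 cm tall, and held 13–15 days in the greenhouse.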

cocklebur = experiment: Test B pre-/postemergence herbicide test; type: in vivo, Xanthium strumarium; conditions: for Cocklebur plant response rating (0 to 100 scale) / Plant response rating, Cocklebur: 0 = no effect, 100 = complete control, preemergence; for Cocklebur plant response rating: postemergence
Summary of the method: as §1

lambsquarters = experiment: Test B pre-/postemergence herbicide test; type: in vivo, Chenopodium album; conditions: for Lambsquarters plant response rating (0 to 100 scale) / Plant response rating, Lambsquarters: 0 = no effect, 100 = complete control, preemergence; for Lambsquarters plant response rating: postemergence
Summary of the method: as §2

velvetleaf = experiment: Test B pre-/postemergence herbicide test; type: in vivo, Abutilon theophrasti; conditions: for Velvetleaf plant response rating: postemergence; for Plant response rating, Velvetleaf: 0 = no effect, 100 = complete control, preemergence
Summary of the method: as §2

morningglory = experiment: Test B pre-/postemergence herbicide test; type: in vivo, Ipomoea coccinea; conditions: for Morningglory plant response rating (0 to 100 scale) / Plant response rating, Morningglory: 0 = no effect, 100 = complete control, preemergence; for Morningglory plant response rating: postemergence
Summary of the method: as §1

rice = experiment: Test B flooded paddy test; type: in vivo, Oryza sativa; conditions: 1000 g ai/ha, scale 0 to 100 (0 no effect, 100 complete control)
Summary of the method: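 Each value is a visual 0–100 response rating taken against controls 13 to 15 days after treatment in the greenhouse. Plants received formulated chemical postemergence at the 1- to 4-leaf stage or, in flooded paddy, at the 2-leaf stage.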

ducksalad = experiment: Test B flooded paddy test; type: in vivo, Heteranthera limosa; conditions: 1000 g ai/ha, scale 0 to 100 (0 no effect, 100 complete control)
Summary of the method: (§3)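 Treated at 2-leaf (paddy) or 1–4-leaf, 2–18 cm (postemergence); greenhouse 13–15 d; visual score vs control, 0 none to 100 complete control; dash = not tested.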

wild oat = experiment: Test B postemergence herbicide test; type: in vivo, Avena fatua; conditions: postemergence
Summary of the method: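 After treating 2-leaf paddy plants or 2–18 cm postemergence plants (1 to 4 leaves) with formulated chemical, researchers kept them in a greenhouse for 13–15 days. Effects were judged visually versus controls: 0 indicates none, 100 total control.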

corn = experiment: Test B pre-/postemergence herbicide test; type: in vivo, Zea mays; conditions: for Corn plant response rating (0 to 100 scale) / Plant response rating, Corn: 0 = no effect, 100 = complete control, preemergence; for Corn plant response rating: postemergence
Summary of the method: as §2

[1] = tested on: small flower umbrella sedge; experiment: Test B flooded paddy test; type: in vivo, Cyperus difformis; conditions: 1000 g ai/ha, scale 0 to 100 (0 no effect, 100 complete control)
Summary of the method: as §3

giant foxtail = experiment: Test B pre-/postemergence herbicide test; type: in vivo, Setaria faberi; conditions: for Foxtail, Giant plant response rating (0 to 100 scale) / Plant response rating, Foxtail, Giant: 0 = no effect, 100 = complete control, preemergence; for Foxtail, Giant plant response rating: postemergence
Summary of the method: as §2

blackgrass = experiment: Test B postemergence herbicide test; type: in vivo, Alopecurus myosuroides; conditions: postemergence
Summary of the method: as §3

large crabgrass = experiment: Test B pre-/postemergence herbicide test; type: in vivo, Digitaria sanguinalis; conditions: for Crabgrass, Large plant response rating (0 to 100 scale) / Plant response rating, Crabgrass, Large: 0 = no effect, 100 = complete control, preemergence; for Crabgrass, Large plant response rating: postemergence
Summary of the method: as §2

Surinam grass = experiment: Test B pre-/postemergence herbicide test; type: in vivo, Urochloa decumbens; conditions: for Surinam Grass plant response rating (0 to 100 scale) / Plant response rating, Surinam Grass: 0 = no effect, 100 = complete control, preemergence; for Surinam Grass plant response rating: postemergence
Summary of the method: as §2

[2] = 125 g ai/ha, visual rating, scale 0 (no effect) to 100 (complete control)
[3] = 500 g ai/ha, scale 0 to 100, 0 is no effect, 100 is complete control

CCNC(=O)c1ccc(F)c(NC(=O)c2cc(C3(C)CC3)nn2CC)c1 [Compound 300]
Barnyardgrass plant response rating (0 to 100 scale) (barnyardgrass; 125 g ai/ha): 70 | Barnyardgrass plant response rating (barnyardgrass; [2]): 30 | Plant response rating, Barnyardgrass (barnyardgrass; 500 g ai/ha, visual rating): 90 | Barnyardgrass plant response rating (barnyardgrass; [3]): 50 | Pigweed plant response rating (0 to 100 scale) (pigweed; 125 g ai/ha): 100 | Pigweed plant response rating (pigweed; [2]): 80 | Plant response rating, Pigweed (pigweed; 500 g ai/ha, visual rating): 100 | Pigweed plant response rating (pigweed; [3]): 90 | Cocklebur plant response rating (0 to 100 scale) (cocklebur; 125 g ai/ha): 10 | Cocklebur plant response rating (cocklebur; [2]): 10 | Plant response rating, Cocklebur (cocklebur; 500 g ai/ha, visual rating): 20 | Cocklebur plant response rating (cocklebur; [3]): 50 | Lambsquarters plant response rating (0 to 100 scale) (lambsquarters; 125 g ai/ha): 100 | Lambsquarters plant response rating (lambsquarters; [2]): 70 | Plant response rating, Lambsquarters (lambsquarters; 500 g ai/ha, visual rating): 100 | Lambsquarters plant response rating (lambsquarters; [3]): 80 | Velvetleaf plant response rating (velvetleaf; [2]): 40 | Plant response rating, Velvetleaf (velvetleaf; 500 g ai/ha, visual rating): 100 | Velvetleaf plant response rating (velvetleaf; [3]): 70 | Morningglory plant response rating (0 to 100 scale) (morningglory; 125 g ai/ha): 10 | Morningglory plant response rating (morningglory; [2]): 90 | Plant response rating, Morningglory (morningglory; 500 g ai/ha, visual rating): 60 | Morningglory plant response rating (morningglory; [3]): 90 | Rice plant response rating (rice): 90 | Ducksalad plant response rating (ducksalad): 90 | Oat, Wild plant response rating (wild oat; [2]): 30 | Oat, Wild plant response rating (wild oat; [3]): 30 | Corn plant response rating (0 to 100 scale) (corn; 125 g ai/ha): 0 | Corn plant response rating (corn; [2]): 30 | Plant response rating, Corn (corn; 500 g ai/ha, visual rating): 70 | Corn plant response rating (corn; [3]): 30 | Sedge, Umbrella plant response rating [1]: 90 | Foxtail, Giant plant response rating (0 to 100 scale) (giant foxtail; 125 g ai/ha): 80 | Foxtail, Giant plant response rating (giant foxtail; [2]): 30 | Plant response rating, Foxtail, Giant (giant foxtail; 500 g ai/ha, visual rating): 100 | Foxtail, Giant plant response rating (giant foxtail; [3]): 30 | Blackgrass plant response rating (blackgrass; [2]): 10 | Blackgrass plant response rating (blackgrass; [3]): 30 | Crabgrass, Large plant response rating (0 to 100 scale) (large crabgrass; 125 g ai/ha): 100 | Crabgrass, Large plant response rating (large crabgrass; [2]): 10 | Plant response rating, Crabgrass, Large (large crabgrass; 500 g ai/ha, visual rating): 100 | Crabgrass, Large plant response rating (large crabgrass; [3]): 30 | Surinam Grass plant response rating (0 to 100 scale) (Surinam grass; 125 g ai/ha): 80 | Surinam Grass plant response rating (Surinam grass; [2]): 10 | Plant response rating, Surinam Grass (Surinam grass; 500 g ai/ha, visual rating): 100 | Surinam Grass plant response rating (Surinam grass; [3]): 10

CCn1nc(C2(C)CC2)cc1C(=O)Nc1cc(C(=O)N2CC=CC2)ccc1F [Compound 301]
Barnyardgrass plant response rating (0 to 100 scale) (barnyardgrass; 125 g ai/ha): 60 | Barnyardgrass plant response rating (barnyardgrass; [2]): 20 | Plant response rating, Barnyardgrass (barnyardgrass; 500 g ai/ha, visual rating): 100 | Barnyardgrass plant response rating (barnyardgrass; [3]): 60 | Pigweed plant response rating (0 to 100 scale) (pigweed; 125 g ai/ha): 100 | Pigweed plant response rating (pigweed; [2]): 80 | Plant response rating, Pigweed (pigweed; 500 g ai/ha, visual rating): 100 | Pigweed plant response rating (pigweed; [3]): 90 | Cocklebur plant response rating (0 to 100 scale) (cocklebur; 125 g ai/ha): 0 | Cocklebur plant response rating (cocklebur; [2]): 10 | Plant response rating, Cocklebur (cocklebur; 500 g ai/ha, visual rating): 0 | Cocklebur plant response rating (cocklebur; [3]): 50 | Lambsquarters plant response rating (0 to 100 scale) (lambsquarters; 125 g ai/ha): 100 | Lambsquarters plant response rating (lambsquarters; [2]): 70 | Plant response rating, Lambsquarters (lambsquarters; 500 g ai/ha, visual rating): 100 | Lambsquarters plant response rating (lambsquarters; [3]): 80 | Velvetleaf plant response rating (velvetleaf; [2]): 30 | Plant response rating, Velvetleaf (velvetleaf; 500 g ai/ha, visual rating): 100 | Velvetleaf plant response rating (velvetleaf; [3]): 100 | Morningglory plant response rating (0 to 100 scale) (morningglory; 125 g ai/ha): 10 | Morningglory plant response rating (morningglory; [2]): 60 | Plant response rating, Morningglory (morningglory; 500 g ai/ha, visual rating): 80 | Morningglory plant response rating (morningglory; [3]): 90 | Rice plant response rating (rice): 90 | Ducksalad plant response rating (ducksalad): 90 | Oat, Wild plant response rating (wild oat; [2]): 20 | Oat, Wild plant response rating (wild oat; [3]): 40 | Corn plant response rating (0 to 100 scale) (corn; 125 g ai/ha): 0 | Corn plant response rating (corn; [2]): 50 | Plant response rating, Corn (corn; 500 g ai/ha, visual rating): 10 | Corn plant response rating (corn; [3]): 50 | Sedge, Umbrella plant response rating [1]: 90 | Foxtail, Giant plant response rating (0 to 100 scale) (giant foxtail; 125 g ai/ha): 70 | Foxtail, Giant plant response rating (giant foxtail; [2]): 10 | Plant response rating, Foxtail, Giant (giant foxtail; 500 g ai/ha, visual rating): 90 | Foxtail, Giant plant response rating (giant foxtail; [3]): 20 | Blackgrass plant response rating (blackgrass; [2]): 10 | Blackgrass plant response rating (blackgrass; [3]): 40 | Crabgrass, Large plant response rating (0 to 100 scale) (large crabgrass; 125 g ai/ha): 100 | Crabgrass, Large plant response rating (large crabgrass; [2]): 20 | Plant response rating, Crabgrass, Large (large crabgrass; 500 g ai/ha, visual rating): 100 | Crabgrass, Large plant response rating (large crabgrass; [3]): 60 | Surinam Grass plant response rating (0 to 100 scale) (Surinam grass; 125 g ai/ha): 90 | Surinam Grass plant response rating (Surinam grass; [2]): 10 | Plant response rating, Surinam Grass (Surinam grass; 500 g ai/ha, visual rating): 100 | Surinam Grass plant response rating (Surinam grass; [3]): 30
